Marks after values point to notes of the source that are not given here.
Legend:
[1] = target: TACE (Homo sapiens, UniProt P78536); assay: TACE activity (IC 50); format: biochemical
[2] = target: MMP-13 (Homo sapiens, UniProt P45452); assay: MMP activity (IC 50), MMP-13; format: biochemical
[3] = system: noncystic littermates; assay: Treatment of noncystic (phenotypically normal) littermates of bpk mice; format: in vivo; settings: P-21 noncystic mice
Protocol: (§1) Cystic bpk mice and phenotypically normal littermates were injected with a dose of 100 mg/kg/dose of 1-acetyl-4-(4-but-2-ynyloxy-benzenesulfonyl)-2,3,4,5-tetrahydro-1 h-[1,4]benzodiazepine-3-carboxylic acid hydroxyamide given intraperitoneally once daily, in a vehicle containing 0.5% methocellulose (Fluka Biochemica, Ronkonkoma, N.Y.) and 2% Tween 80 (J T Baker, Phillipsburg, N.J.), beginning at postnatal day 7. Age-matched untreated cystic bpk mice and their noncystic littermates served as controls. At day 21, mice were sacrificed. Blood was obtained by orbital puncture prior to sacrifice. Kidney weight and body weight for treated and untreated cystic and noncystic mice were measured at sacrifice. Blood urea nitrogen (BUN) was assessed using a calorimetric assay. Serum creatinine was assessed using standard techniques in the hospital laboratory. Differences in clinical and laboratory parameters between treated and untreated cystic and noncystic mice were analyzed by two-tailed Student's t-test.

[4] = system: cystic bpk mice; assay: Treatment of cystic bpk mice (bpk model of ARPKD); format: in vivo
Text: This model arose from a spontaneous mutation in a colony of BALB/C mice. Affected animals have many similarities to the human disease including collecting tubule (CT) cysts and biliary ectasia and fibrosis. The kidney disease has a consistent and severe phenotype. Mice homozygous for the bpk mutation have microscopic evidence of cyst formation at birth. Proximal tubule (PT) cysts are present at birth, which are gradually replaced by CT cysts as the disease progresses. Cyst expansion and kidney fibrosis result in death due to renal failure at 24-28 days. Heterozygotes show no phenotypic abnormalities and are identified by their ability to breed affected offspring. Unaffected (noncystic) littermates of cystic bpk mice are either wild-type or heterozygous at the bpk locus.
as §1
Kidneys were fixed in 4% paraformaldehyde and embedded in plastic. Segment-specific localization of cysts was assessed using lectins specific to proximal tubule (Lotus tetragonolobus, LTA), and collecting tubule (Dolichos biflorus agglutinin, DBA). Serial LTA and DBA stained sections were examined by light microscopy and assessed for severity of cystic dilatations in PTs and CTs, expressed on a scale of 0 to 5 using a modified cystic index: • 0=No cysts • 1=≦0.11 mm • 2=0.12-0.19 mm • 3=0.20-0.27 mm • 4=0.28-0.35 mm • 5=≧0.36 mm The total number of CT (DBA+/LTA−) cysts and PT (LTA+/DBA−) cysts within a section were counted and expressed as a ratio.
Mice were treated from day 7 of life until day 21, then sacrificed. […] The results are listed below in Tables 1, 2, and 3.

[5] = target: MMP-9 (Homo sapiens, UniProt P14780); assay: MMP activity (IC 50), MMP-9; format: biochemical
[6] = target: T1, MMP-1 (Homo sapiens, UniProt P03956); assay: MMP activity (IC 50), MMP-1; format: biochemical
T1 sequence (P03956 100-469): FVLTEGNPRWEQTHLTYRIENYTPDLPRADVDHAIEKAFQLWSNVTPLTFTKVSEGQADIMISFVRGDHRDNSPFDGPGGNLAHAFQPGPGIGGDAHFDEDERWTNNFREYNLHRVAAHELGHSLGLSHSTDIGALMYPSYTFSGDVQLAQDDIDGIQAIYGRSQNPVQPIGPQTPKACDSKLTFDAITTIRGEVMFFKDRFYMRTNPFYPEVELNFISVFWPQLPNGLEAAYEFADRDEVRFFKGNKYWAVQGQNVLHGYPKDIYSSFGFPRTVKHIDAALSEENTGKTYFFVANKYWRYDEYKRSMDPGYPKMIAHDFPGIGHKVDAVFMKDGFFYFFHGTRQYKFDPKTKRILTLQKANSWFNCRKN

[7] = system: cystic bpk mice; assay: Treatment of cystic bpk mice (bpk model of ARPKD); format: in vivo; settings: B 50 mg/kg/day once daily IP day 7 to 21
[8] = 100 mg/kg/dose intraperitoneally once daily from postnatal day 7, sacrifice day 21
[9] = P-21 cystic bpk mice, 100 mg/kg/dose intraperitoneally once daily from postnatal day 7, sacrifice day 21

Sequence of MMP-9 (P14780 94-707): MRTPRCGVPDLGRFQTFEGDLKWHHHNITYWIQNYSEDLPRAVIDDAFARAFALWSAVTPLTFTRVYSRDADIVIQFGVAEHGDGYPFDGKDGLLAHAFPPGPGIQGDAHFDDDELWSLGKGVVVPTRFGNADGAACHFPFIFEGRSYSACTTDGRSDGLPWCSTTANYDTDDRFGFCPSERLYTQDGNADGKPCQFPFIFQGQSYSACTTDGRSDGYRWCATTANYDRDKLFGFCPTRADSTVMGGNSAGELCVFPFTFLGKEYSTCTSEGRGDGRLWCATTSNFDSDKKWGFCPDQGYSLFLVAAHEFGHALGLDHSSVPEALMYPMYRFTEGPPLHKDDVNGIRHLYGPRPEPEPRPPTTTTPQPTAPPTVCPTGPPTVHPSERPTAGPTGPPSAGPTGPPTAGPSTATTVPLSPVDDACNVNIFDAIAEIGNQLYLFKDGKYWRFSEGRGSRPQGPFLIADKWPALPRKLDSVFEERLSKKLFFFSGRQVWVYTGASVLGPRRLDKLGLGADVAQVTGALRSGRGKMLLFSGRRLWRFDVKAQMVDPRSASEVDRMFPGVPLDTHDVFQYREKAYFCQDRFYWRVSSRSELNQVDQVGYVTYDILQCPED
Sequence of TACE (P78536 215-824): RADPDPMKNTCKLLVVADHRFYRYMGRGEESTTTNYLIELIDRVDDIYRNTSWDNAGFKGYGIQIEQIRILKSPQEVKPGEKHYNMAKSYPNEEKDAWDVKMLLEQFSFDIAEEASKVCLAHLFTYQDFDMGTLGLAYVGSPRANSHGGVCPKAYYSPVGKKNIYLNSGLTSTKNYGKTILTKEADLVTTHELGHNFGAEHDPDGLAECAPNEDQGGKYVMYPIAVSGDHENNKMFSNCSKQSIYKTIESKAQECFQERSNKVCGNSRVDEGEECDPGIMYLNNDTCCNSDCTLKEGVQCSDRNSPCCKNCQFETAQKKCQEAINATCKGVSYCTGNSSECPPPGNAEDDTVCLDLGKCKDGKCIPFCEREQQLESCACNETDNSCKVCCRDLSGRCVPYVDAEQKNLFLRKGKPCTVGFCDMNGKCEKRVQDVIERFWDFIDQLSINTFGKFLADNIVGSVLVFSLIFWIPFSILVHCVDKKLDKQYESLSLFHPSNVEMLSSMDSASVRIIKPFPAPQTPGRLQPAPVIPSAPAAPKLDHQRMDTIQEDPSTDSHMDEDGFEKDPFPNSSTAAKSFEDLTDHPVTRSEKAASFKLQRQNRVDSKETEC

## CC#CCOc1ccc(S(=O)(=O)N2Cc3ccccc3N(C(C)=O)CC2C(=O)NO)cc1 (stereo not drawn) [A, 1-Acetyl-4-(4-But-2-ynyloxy-Benzenesulfonyl)-2,3,4,5-Tetrahydro-1H-[1,4]Benzodiazepine-3-Carboxylic Acid Hydroxyamide]
[1]
  IC50: 8.4 nM
[2]
  IC50: 3 nM
[3]; 100 mg/kg/dose intraperitoneally once daily from postnatal day 7, blood at day 21
  BUN: 17 +/− 4^d mg/dl
[3]; [8]
  Body Weight: 8.5 +/− 1.0 grams
  Kidney Weight: 0.13 +/− 0.01 grams
  Kidney Weight to Body Weight: 1.5 +/− 0.1%
[3]; serum, 100 mg/kg/dose intraperitoneally once daily from postnatal day 7, blood at day 21
  Creatinine: 0.15 +/− 0.05^e mg/dl
[4]; P-21 cystic bpk mice, 100 mg/kg/dose intraperitoneally once daily from postnatal day 7, blood at day 21
  BUN: 33 +/− 4^b** mg/dl
[4]; [9]
  Body Weight: 8.2 +/− 1.3 grams
  Kidney Weight: 0.93 +/− 0.2** grams
  Kidney Weight to Body Weight: 11.2 +/− 1.3** percent
[4]; collecting tubule cysts, DBA stained kidney sections, cystic mice, 100 mg/kg/dose IP once daily day 7 to 21
  CT Cystic Index (graded 1–5): 3.2 +/− 0.4**
[4]; collecting tubule cysts, cystic mice, 100 mg/kg/dose IP once daily day 7 to 21
  CT Cyst Size Range: 0.012–0.29 mm
[4]; cystic bpk mice, A 100 mg/kg/dose IP once daily day 7 to 21
  Cystic Kidney Weight to Body Weight: 11.2 +/− 1.3%
[4]; proximal tubule cysts, LTA stained kidney sections, cystic mice, 100 mg/kg/dose IP once daily day 7 to 21
  PT Cystic Index (graded 1–5): 1.8 +/− 0.4
[4]; proximal tubule cysts, cystic mice, 100 mg/kg/dose IP once daily day 7 to 21
  PT Cyst Size Range: 0.012–0.17 mm
[4]; serum, P-21 cystic bpk mice, 100 mg/kg/dose intraperitoneally once daily from postnatal day 7, blood at day 21
  Creatinine: 0.18 +/− 0.05^b mg/dl
[4]; total number of CT cysts to PT cysts within a section, cystic mice, 100 mg/kg/dose IP once daily day 7 to 21
  Cystic CT/PT Ratio: 1.2**
[5]
  IC50: 12 nM
[6]
  IC50: 6.6 nM

## O=C(NO)C1(S(=O)(=O)c2ccc(Oc3ccc(Cl)cc3)cc2)CCN(Cc2ccccc2)CC1 [B, 1-Benzyl-4-[4-(4-chloro-phenoxy)-benzenesulfonyl]-piperidine-4-carboxylic acid hydroxamide]
[7]
  Cystic Kidney Weight to Body Weight: 15.3 +/− 1.7%

Source: patent US7488754B2, “Method for the treatment of polycystic kidney disease” (Wyeth, priority 2002, dated 2009)
